Tests used:
Assay type in all cases: in vivo, mice
β-cells = assay: β-cell elimination and β-cell mass after alloxan injection, with or without PDL
Protocol: (§1) Six- to ten-week old C57/B6 or ICR (Institute of Cancer Research) mice (Harlan Sprague Dawley, Inc.; Placentia, Calif., USA) were injected intravenously with Alloxan (Sigma Aldrich, St. Louis, Mo., USA) at 90 mg/kg. PDL was conducted essentially as described with the following minor modifications. Approximately 50% of the pancreas (the head) remained proximal to the ligation. For the mice receiving PDL plus A, PDL was performed 30 minutes after alloxan injection. Only mice with a blood sugar greater than 500 mg/dl (checked 48 hours after alloxan injection) were selected for experiments. Those mice were injected subcutaneously once daily with insulin glargine (Sanofi-Aventis, Paris, France).
Quantitation of β-cell Mass—β-cell mass was calculated as the relative β-cell area multiplied by pancreatic weight. For the quantitative analysis of insulin (+) cell area, we studied sections spaced 100 lm apart from each other from the tail of the pancreas per mouse. These sections were incubated with antisera to insulin (1:200, rabbit, Santa Cruz Biotechnology, Santa Cruz, Calif., USA) and the bound antibody was visualized by DAB (3,30-Diaminobenzidine) (Vector Laboratories, Burlingame, Calif., USA). The nuclei were stained by Hematoxylin (Surgipath, Richmond, Ill., USA). All slides were scanned and analyzed by using the Aperio ScanScope XT system (version 10, Aperio Technologies, Vista, Calif.).

[1] = system: insulin-positive and glucagon-positive cells of the pancreas; assay: Immunohistochemical marker quantification in pancreas after PDL plus alloxan
Protocol: as §1
Immunohistochemical Staining—Tissue was fixed in 4% formaldehyde for 6 hours at 4° C., washed in PBS (Phosphate buffered saline), followed by overnight in 30% sucrose at 4° C., then embedded in OCT (Optimal Cutting Temperature) compound and frozen at […]. Cryosections of 5 um thickness were incubated with antisera specific for insulin (1/200, guinea pig, USBIO, Swampscott, Mass., USA), insulin (1/200, rabbit, Santa Cruz Biotechnology, Santa Cruz, Calif., USA), glucagon (1/2,000, mouse, Sigma-Aldrich, St. Louis, Mo., USA), glucagon (1/50, rabbit, Abcam, Cambridge, Mass., USA), cytokeratin (Wide Spectrum Screening; 1/500, rabbit, DakoCytomation, Glostrup, Denmark), somatostatin (1/200, goat, Santa Cruz Biotechnology, Santa Cruz, Calif., USA), KI67 (1/50, mouse, BD Pharmingen, San Diego, Calif., USA), MafA (1/100, rabbit, Bethyl Laboratories, Montgomery, Tex., USA), MafB (1/100, rabbit, Bethyl Laboratories, Montgomery, Tex., USA), PDX1 (1/2,000, goat, Abcam, Cambridge, Mass., USA), Nkx6.1 (1/1,000, mouse, Beta Cell Biology Consortium, Nashville, Tenn., USA), 5-bromodeoxyuridine (BrdU; mouse, GE healthcare, Piscataway, N.J., USA), and C-peptide (1/100, rabbit, Cell Signaling, Danvers, Mass., USA). Secondary antibodies for detection of guinea pig, rabbit, goat, or mouse antibodies were labeled with: Alexa Fluor 488 (Invitrogen, Carlsbad, Calif., USA), Rhodamine Red (Jackson ImmunoResearch Laboratories, West Grove, Pa., USA), Cy5 (Jackson ImmunoResearch Laboratories, West Grove, Pa., USA). Nuclei were visualized with DAPI (40,6-diamidino-2-phenylindole) (Sigma Aldrich, St. Louis, Mo., USA).
Image and Statistical Analysis—All images were acquired by confocal scanning microscopy (Radiance 2100/AGR-3Q BioRad Multi-photon Laser Point Scanning Confocal Microscope). Images were processed with Image J software. The colocalization patterns in FIG. 4, FIGS. 18 and 19 were determined by the colocalization threshold algorithm in WCIF image J. Confocal z stacks were captured at 0.5 lm increments. Three dimensional reconstructions and measurements were performed by using Volocity software (version 5.3). Statistical significance of cell-specific changes in controls versus experimental groups was calculated by an unpaired Student's t-test. We considered p-values below 0.05 as statistically significant. For all statistical analysis, Graphpad Prism 5 was used. All results are expressed as mean±SD.

[2] = Mortality and glycemia following PDL plus alloxan
Protocol: as §1
The initial insulin dose was 1 unit per mouse (around […] in weight). If hyperglycemia was not controlled at that dose, it was raised gradually until diabetes was controlled. Even with careful management of diabetes, the mortality following PDL plus alloxan was high, around 50%.

[3] = 14 days following alloxan plus PDL
[4] = seven days following PDL plus alloxan

O=C1NC(=O)C(=O)C(=O)N1 [alloxan]
residual β-cells, of pre-existing β-cells (β-cells; after alloxan): less than 1% | pre-existing β-cells eliminated (β-cells; alloxan injection, by 3 days after injection): 99% | β-cell regeneration (β-cells; alloxan treatment alone, two weeks later): no evidence of β-cell regeneration | change in β-cell mass (β-cells; alloxan, between 3 and 14 days after injection): no change in the β-cell mass | β-cells eliminated (β-cells; following PDL plus alloxan): greater than 99% | insulin-positive cells coexpressing glucagon ([1]; 1 week following PDL plus alloxan): 58% | frequency of replicating insulin-positive cells (Ki67) ([1]; 3 days following alloxan plus PDL): 0.98% | replication rate of glucagon-positive cells ([1]; 7 days following PDL plus alloxan): 5% | insulin-positive cells coexpressing glucagon ([1]; 14 days following PDL plus alloxan): 21% | β-cells expressing MafA [1, 3]: 63% | β-cells expressing MafB [1, 3]: 22% | α-cells expressing PDX1 ([1]; PDL plus alloxan, within 1 week): 11% | frequency of replicating insulin-positive cells (Ki67) ([1]; day 7 following PDL plus alloxan): 6% | frequency of replicating insulin-positive cells (Ki67) ([1]; day 14 following PDL plus alloxan): decreased to basal levels | insulin positive cells expressing MafA [1, 4]: 26% | insulin positive cells expressing MafB [1, 4]: 64% | normoglycemia ([2]; PDL plus alloxan): did not achieve normoglycemia | mortality ([2]; following PDL plus alloxan, with insulin glargine management of diabetes): around 50%

— patent publication US20120270890A1, “Methods of Pancreatic Beta Cell Regeneration” (priority 2011, published 2012)
